The assay addresses T1, APOL1 G1 Protein (Homo sapiens, UniProt O14791, I384M/S342G).
T1 sequence (O14791 28-398 S342G/I384M): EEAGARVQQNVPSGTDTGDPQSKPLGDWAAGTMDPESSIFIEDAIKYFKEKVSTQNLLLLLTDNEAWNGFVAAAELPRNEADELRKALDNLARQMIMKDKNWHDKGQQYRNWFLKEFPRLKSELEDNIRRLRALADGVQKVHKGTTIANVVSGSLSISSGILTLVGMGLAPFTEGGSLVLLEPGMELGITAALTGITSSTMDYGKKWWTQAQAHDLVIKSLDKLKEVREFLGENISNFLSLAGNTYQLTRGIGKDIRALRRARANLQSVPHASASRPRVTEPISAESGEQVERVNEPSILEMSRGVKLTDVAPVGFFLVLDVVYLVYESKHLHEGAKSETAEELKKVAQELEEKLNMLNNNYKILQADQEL
Nature of the assay: Trypanosoma brucei brucei lysis assay using APOL1 recombinant protein (AlamarBlue viability). The assay is classed as cell-based. The note with it: Trypanosoma brucei brucei lysis, recombinant APOL1, AlamarBlue; read-out: Trypanosoma Assay (IC50). An excerpt: Trypanosoma brucei brucei is a blood stream parasite to which human, gorillas and baboon are immune due to the presence of the APOL1 protein in their HDL particles. The protein is uptaken by the parasite via the TbHpHb receptor located in its flagellar pocket and is bonded by the Hpr protein contained in the HDL particles which triggers the receptor endocytosis by the parasite.
Following endocytosis, the formed vesicle containing the HDL particle matures from early to late endosome, and subsequently to lysosome. The concomitant pH change in the lumen of the vesicle triggers the insertion of the APOL1 protein into the membrane of the late endosome/lysosome and hereby triggers lysosomal membrane premeabilisation and as a further downstream event, trypanosome lysis. Trypanosoma brucei brucei is sensitive to lysis by all three APOL1 variants (G0, G1, and G2).
The Trypanosoma brucei brucei lysis assay is a lysis assay of the parasite using recombinant APOL1 protein variant followed by a fluorescent detection method of viability by the addition of AlamarBlue reagent to the assay well, a general metabolic redox indicator (AlamarBlue assay).
Briefly, the AlamarBlue active compound, the resazurin, a blue, water soluble, non-toxic and cell permeable molecule, which can be followed by absorbance, is reduced by various metabolic pathways into resorufin, a red compound which can be followed by either absorbance or fluorescence. The assay allows the calculation of the percent viability (percent of living Trypanosomes remaining in each well) at the end of a lysis relative to the untreated condition by interpolation of fluorescent values (FLU) on a standard curve with a known amount of seeded trypanosome/well.
Trypanosoma brucei brucei (ATCC, Cat. No. PRA-382) • Lister 427 VSG 221 bloodstream form.
Thaw/Expansion Media (ATCC Medium 2834 Modified HMI-9 Medium)
Assay Media (No Phenol Red/No FBS): Make on Day of Use
Hypoxanthine Stock (100×)-9 (10×)
Equipment • El-Clip Tip pipette 12 channel adjustable 2-125 μL, Cat. No. 4672070BT • ThermoFisher MultiDrop 384, Cat. No. 5840300 • Multidrop • Agilent Bravo, Cat. No. G5409A • Bravo • SpectraMax M5
Assay Ready Plates (ARPs) • ARPs comes in two formats: • […] final top concentration with a 2.5 fold dilution down. • […] final top concentration with a 3 fold dilution down. • Both have a 10 point Dose response. • 0.1% DMSO final in the Black Assay Plate. • Compounds are diluted 1000 fold in the Black Assay Plate. • Each plate is designed for 14 compounds in duplicate. • In the final Black Assay Plate:
Trypanosoma brucei brucei Culture
Step 2, Day 4 • Centrifuge at 800×g for 5 minutes at room temperature. • Resuspend in 1 mL media. • Make a 1:25 fold dilution (10 μL/240 μL media). • Count on a hemocytometer (after adding parasites). • Let sit for 1-2 minutes for the parasites to settle. • Count should be approximately 100 viable motile parasites/16 grid or approximately 25×10^6 parasites/flask. • Passage the parasites by adding 1×10^6 parasites/T75 flask in 20 mL media. • Passage the parasites by adding 2.33×10^6 parasites/T175 flask in 46.6 mL media. • For every T75 flask should make enough for approximately 1.5×384 well assay plates. • For every T175 flask should make enough for approximately 3.8×384 well assay plates.
Step 3, Day 6 • Centrifuge at 800×g for 5 minutes. • Resuspend in 3 mL assay media (No phenol red, no FBS) per 75 starting flask. • Resuspend in 7 mL assay media (No phenol red, no FBS) per 175 flask • Make a 1:25 fold dilution. • Count by hemocytometer. • Every T75 flask set up should have approximately 75×10^6 parasites/flask (verify doubling time=8.7 hrs±1 hr). • Every T175 flask set up should have approximately 175×10^6 parasites/flask (verify doubling time=8.7 hrs±1 hr). • Require 46×10^6 parasites per 384 well plate (at 120,000 parasites per well). Protocol B […]

The values that follow come from US12116343B2, “Inhibitors of APOL1 and methods of using same” (Vertex Pharmaceuticals Incorporated, priority 2020, dated 2024).

pIC50: −log10 of the molar value.

Usually pIC50 stands for the IC50 on a negative log10 scale, so that one unit is a factor of ten.

Take `NC(=O)[C@H]1C[C@H](c2c(-c3ccc(F)cc3)[nH]c3c(F)cc(F)cc32)C1` [Compound 169]: the negative-log IC50 (pIC50) is over 6.60. For `O=C([C@H]1C[C@H](c2c(-c3ccc(F)cc3)[nH]c3c(F)cc(F)cc32)C1)N1CCCC1CCO` (some centres unmarked) [Compound 101] the value was 6.00 to 6.60.

In the case of `O=C([C@H]1C[C@H](c2c(-c3ccc(F)cc3)[nH]c3c(F)cc(F)cc32)C1)N1CCC[C@@H](CO)C1` [Compound 109], the pIC50 is under 6.00. With `CC1(C)CN(C(=O)[C@H]2C[C@H](c3c(-c4ccc(F)cc4)[nH]c4c(F)cc(F)cc43)C2)CCC1O` (some centres unmarked) [Compound 114], the pIC50 was under 6.00. As to `CCN(CCO)C(=O)[C@H]1C[C@H](c2c(-c3ccc(F)cc3)[nH]c3c(F)cc(F)cc32)C1` [Compound 124], the pIC50 was 6.00 to 6.60. Turning to `O=C([C@H]1C[C@H](c2c(-c3ccc(F)cc3)[nH]c3c(F)cc(F)cc32)C1)N1CCCC[C@@H]1CO` [Compound 107], the negative logarithm of the IC50 (pIC50) was 6.00 to 6.60. For `O=C([C@H]1C[C@H](c2c(-c3ccc(F)cc3)[nH]c3c(F)cc(F)cc32)C1)N1CCC(CCO)CC1` [Compound 134] the value was under 6.00; for `O=C([C@H]1C[C@H](c2c(-c3ccc(F)cc3)[nH]c3c(F)cc(F)cc32)C1)N1CCOC(O)C1` (some centres unmarked) [Compound 115], over 6.60. Take `O=C(N[C@@H](CO)C(F)(F)F)[C@H]1C[C@H](c2c(-c3ccc(F)cc3)[nH]c3c(F)cc(F)cc32)C1` [Compound 163]: the negative logarithm of the IC50 (pIC50) was over 6.60. Take `O=C(NCc1cocn1)[C@H]1C[C@H](c2c(-c3ccc(F)cc3)[nH]c3c(F)cc(F)cc32)C1` [Compound 168]: the pIC50 is over 6.60. For `O=C([C@H]1C[C@H](c2c(-c3ccc(F)cc3)[nH]c3c(F)cc(F)cc32)C1)N1CC(OCC2CCCO2)C1` (some centres unmarked) [Compound 136] the value was under 6.00; for `O=C(NCCCO)[C@H]1C[C@H](c2c(-c3ccc(F)cc3)[nH]c3c(F)cc(F)cc32)C1` [Compound 104], over 6.60.

Regarding `CC1(C)CN(C(=O)[C@H]2C[C@H](c3c(-c4ccc(F)cc4)[nH]c4c(F)cc(F)cc43)C2)CCN1C(=O)[C@H]1C[C@@](C)(O)C1` [Compound 130], the pIC50 is under 6.00.

On to `O=C([C@H]1C[C@H](c2c(-c3ccc(F)cc3)[nH]c3c(F)cc(F)cc32)C1)N1CCCCC1CO` (some centres unmarked) [Compound 145], for which the negative logarithm of the IC50 (pIC50) is 6.00 to 6.60.

On to `CNC(=O)C(C)NC(=O)[C@H]1C[C@H](c2c(-c3ccc(F)cc3)[nH]c3c(F)cc(F)cc32)C1` (mixture of isomers) [Compound 9], for which the pIC50 was 6.00 to 6.60.

Regarding `O=C(O)CNC(=O)[C@H]1C[C@H](c2c(-c3ccc(F)cc3)[nH]c3c(F)cc(F)cc32)C1` [Compound 10], the negative-log IC50 (pIC50) was under 6.00. For `CC(O)CNC(=O)[C@H]1C[C@H](c2c(-c3ccc(F)cc3)[nH]c3c(F)cc(F)cc32)C1` (some centres unmarked) [Compound 167] the value was 6.00 to 6.60; for `NC(=O)[C@@H]1CCN(C(=O)[C@H]2C[C@H](c3c(-c4ccc(F)cc4)[nH]c4c(F)cc(F)cc43)C2)C1` [Compound 135], under 6.00; for `O=C(NC1CC(O)C1)[C@H]1C[C@H](c2c(-c3ccc(F)cc3)[nH]c3c(F)cc(F)cc32)C1` (some centres unmarked) [Compound 5], 6.00 to 6.60. On to `CCN(C(=O)[C@H]1C[C@H](c2c(-c3ccc(F)cc3)[nH]c3c(F)cc(F)cc32)C1)C(C)CO` (mixture of isomers) [Compound 111], for which the pIC50 is 6.00 to 6.60.

With `CC1(C)CN(C(=O)[C@H]2C[C@H](c3c(-c4ccc(F)cc4)[nH]c4c(F)cc(F)cc43)C2)CC1O` (some centres unmarked) [Compound 102], the negative-log IC50 (pIC50) is under 6.00.

Take `NC(=O)[C@H](CO)NC(=O)[C@H]1C[C@H](c2c(-c3ccc(F)cc3)[nH]c3c(F)cc(F)cc32)C1` [Compound 144]: the pIC50 was 6.00 to 6.60. With `O=C([C@H]1C[C@H](c2c(-c3ccc(F)cc3)[nH]c3c(F)cc(F)cc32)C1)N1C2CCC(C2)C1CO` (some centres unmarked) [Compound 97], the pIC50 is under 6.00. Take `C[C@@H](O)[C@H](CO)NC(=O)[C@H]1C[C@H](c2c(-c3ccc(F)cc3)[nH]c3c(F)cc(F)cc32)C1` [Compound 155]: the pIC50 was 6.00 to 6.60. As for `O=C1C[C@@H](NC(=O)[C@H]2C[C@H](c3c(-c4ccc(F)cc4)[nH]c4c(F)cc(F)cc43)C2)C(=O)N1` [Compound 166], the negative logarithm of the IC50 (pIC50) is over 6.60. On to `CC(C)[C@@H](CO)NC(=O)[C@H]1C[C@H](c2c(-c3ccc(F)cc3)[nH]c3c(F)cc(F)cc32)C1` [Compound 141], for which the pIC50 is 6.00 to 6.60. Turning to `CN(C)C[C@@H]1CCN(C(=O)[C@H]2C[C@H](c3c(-c4ccc(F)cc4)[nH]c4c(F)cc(F)cc43)C2)C[C@H]1O` [Compound 110], the negative logarithm of the IC50 (pIC50) is 6.00 to 6.60. Turning to `O=C([C@H]1C[C@H](c2c(-c3ccc(F)cc3)[nH]c3c(F)cc(F)cc32)C1)N1C[C@@H]2[C@@H](CO)[C@@H]2C1` [Compound 99], the negative-log IC50 (pIC50) was under 6.00. As to `O=C([C@H]1C[C@H](c2c(-c3ccc(F)cc3)[nH]c3c(F)cc(F)cc32)C1)N(CCOCCO)C1CCC1` [Compound 121], the pIC50 is under 6.00. Turning to `O=C([C@H]1C[C@H](c2c(-c3ccc(F)cc3)[nH]c3c(F)cc(F)cc32)C1)N1CC(n2cccn2)C1` [Compound 96], the negative-log IC50 (pIC50) is under 6.00. As for `O=C([C@H]1C[C@H](c2c(-c3ccc(F)cc3)[nH]c3c(F)cc(F)cc32)C1)N1C[C@H]2C[C@@]2(CO)C1` [Compound 98], the negative-log IC50 (pIC50) was under 6.00. `O=C([C@H]1C[C@H](c2c(-c3ccc(F)cc3)[nH]c3c(F)cc(F)cc32)C1)N1CCN[C@H](CO)C1` [Compound 161]: the pIC50 is 6.00 to 6.60. For `CC(C)(NC(=O)[C@H]1C[C@H](c2c(-c3ccc(F)cc3)[nH]c3c(F)cc(F)cc32)C1)C(N)=O` [Compound 11] the value was over 6.60; for `O=C([C@H]1C[C@H](c2c(-c3ccc(F)cc3)[nH]c3c(F)cc(F)cc32)C1)N1CCCC(CO)C1` (some centres unmarked) [Compound 147], under 6.00. Consider `O=C(NCc1cnco1)[C@H]1C[C@H](c2c(-c3ccc(F)cc3)[nH]c3c(F)cc(F)cc32)C1` [Compound 170], for which the pIC50 is over 6.60. `O=C([C@H]1C[C@H](c2c(-c3ccc(F)cc3)[nH]c3c(F)cc(F)cc32)C1)N1CCOC(CO)C1` (some centres unmarked) [Compound 148]: the negative logarithm of the IC50 (pIC50) was under 6.00. Take `C[C@H]1CN(C(=O)[C@H]2C[C@H](c3c(-c4ccc(F)cc4)[nH]c4c(F)cc(F)cc43)C2)CC[C@@H]1O` [Compound 116]: the pIC50 is under 6.00. In the case of `O=C([C@H]1C[C@H](c2c(-c3ccc(F)cc3)[nH]c3c(F)cc(F)cc32)C1)N1CCCC(O)C1` (some centres unmarked) [Compound 150], the pIC50 is 6.00 to 6.60. For `O=C(NC1(CO)CCC1)[C@H]1C[C@H](c2c(-c3ccc(F)cc3)[nH]c3c(F)cc(F)cc32)C1` [Compound 6] the value was over 6.60; for `O=C([C@H]1C[C@H](c2c(-c3ccc(F)cc3)[nH]c3c(F)cc(F)cc32)C1)N(CCO)CCCO` [Compound 117], 6.00 to 6.60. For `O=C(N[C@H](CO)C(F)(F)F)[C@H]1C[C@H](c2c(-c3ccc(F)cc3)[nH]c3c(F)cc(F)cc32)C1` [Compound 164], the negative-log IC50 (pIC50) is over 6.60.
